{"source": "patent US20230121689A1", "about": "“CEPHALOSPORIN ANTIBACTERIAL COMPOUND AND PHARMACEUTICAL APPLICATION THEREOF” (priority 2020, published 2023)", "type_in_all_cases": "cell-based", "key": {"[1]": {"tested_on": "Carbapenem-resistant Pseudomonas aeruginosa (CRPA, Pseudomonas aeruginosa)", "experiment": "Test Example 2: antibacterial activity test (MIC)", "settings": "ID-CAMHB, read-out: ID-CAMHB, MIC", "method": "(§1) 1. The test compounds were dissolved in sterile normal saline, vortexed for uniformly mixing, and diluted in a 2-fold dilution with the sterile normal saline (11 concentration points in total). The test concentration range was 32-0.031 μg/mL, and two duplicate wells were set for each concentration. Additional wells without drug dosing were set as growth controls. 2. 4 μL of the diluent was added to 196 μL of the bacterial suspension in a 96-well plate (the bacterial count in the bacterial suspension was 2-8×10^5 colony forming units/mL). 3.\n(§2) The minimum inhibitory concentration (MIC) assay was performed with reference to the Clinical and Laboratory Standards Institute (CLSI) guidelines."}, "[2]": {"tested_on": "Control strain Escherichia coli ATCC 25922", "experiment": "Test Example 2: antibacterial activity test (MIC)", "settings": "ATCC25922, ID-CAMHB, ATCC 25922, read-out: ID-CAMHB, MIC", "method": "as §1, §2"}, "[3]": {"tested_on": "Control Strain Pseudomonas aeruginosa ATCC 27853", "experiment": "Test Example 2: antibacterial activity test (MIC)", "settings": "ATCC27853, ID-CAMHB, ATCC 27853, read-out: ID-CAMHB, MIC", "method": "as §1, §2"}, "[4]": {"tested_on": "Carbapenem-resistant Acinetobacter baumannii (CRAB, Acinetobacter baumannii)", "experiment": "Test Example 2: antibacterial activity test (MIC)", "settings": "ID-CAMHB, read-out: ID-CAMHB, MIC", "method": "as §1, §2"}, "[5]": {"tested_on": "Carbapenem-resistant Enterobacteriaceae (CRE, Klebsiella pneumoniae)", "experiment": "Test Example 2: antibacterial activity test (MIC)", "settings": "ID-CAMHB, read-out: ID-CAMHB, MIC", "method": "as §1, §2"}, "[6]": {"tested_on": "Carbapenem-resistant Acinetobacter baumannii (CRAB)", "experiment": "Test Example 1: antibacterial activity test (MIC)", "method": "(§3) The test compounds were diluted in a gradient and used for an MIC assay on the test strains. The test compounds at an initial assay concentration of 32 μg/mL were diluted in a 2-fold gradient (11 concentration points in total), and two duplicate wells were set for each concentration. Additional wells without drug dosing were set as growth controls. The minimum inhibitory concentration (MIC) assay was performed with reference to the Clinical and Laboratory Standards Institute (CLSI) guidelines.\n(§4) After the frozen strains were subcultured, a single colony was picked and re-suspended in normal saline or sterile water in a tube. The bacterial suspension was vortexed and adjusted to 0.5 McF using a spectrophotometer at the wavelength of 530 nm. The bacterial solution was taken by a pipette, added to a culture medium, diluted and mixed well, and seeded to a bacterial assay plate.\n(§5) The 96-well plate was affixed with a disposable sealing film, shaken and mixed well, and visually observed using a plate reader. The minimum concentration of the compounds capable of inhibiting the growth of bacteria was defined as MIC as compared to the growth controls."}, "[7]": {"tested_on": "Carbapenem-resistant Pseudomonas aeruginosa (CRPA)", "experiment": "Test Example 1: antibacterial activity test (MIC)", "method": "as §3, §4, §5"}, "[8]": {"tested_on": "Carbapenem-resistant Enterobacteriaceae (CRE)", "experiment": "Test Example 1: antibacterial activity test (MIC)", "method": "as §3, §4, §5"}}, "note": "Read-outs that look alike come from different tables or passages of the source."}
{"smiles": "CC(C)(O/N=C(\\C(=O)N[C@@H]1C(=O)N2C(C(=O)[O-])=C(C[N+]3(CC4(NC(=O)c5ccc(O)c(O)c5Cl)CC4)CCCC3)CS[C@H]12)c1csc(N)n1)C(=O)O", "note": "[Compound 2]", "values": [{"measurement": "MIC", "setting": "[1]; FDA-CDC AR-BANK #0439 (aac(6′)-Il, aadA1b, BCR1, IMP-18, OXA-50)", "result": 0.5, "unit": "µg/mL"}, {"measurement": "MIC", "setting": "[1]; FDA-CDC AR-BANK #0441 (KPC-2)", "result": 2, "unit": "µg/mL"}, {"measurement": "MIC", "setting": "[1]; FDA-CDC AR-BANK #0444 (aac(6′)-Il, dfrB5, OXA-4, tet(G), VIM-2)", "result": 4, "unit": "µg/mL"}, {"measurement": "MIC", "setting": "[1]; FDA-CDC AR-BANK #0457 (aadA6, VIM-2)", "result": 0.125, "unit": "µg/mL"}, {"measurement": "MIC", "setting": "[2]", "result": 0.125, "unit": "µg/mL"}, {"measurement": "MIC", "setting": "[3]", "result": 0.0625, "unit": "µg/mL"}, {"measurement": "MIC", "setting": "[4]; FDA-CDC AR-BANK #0036 (strB, OXA-65, OXA-24, strA, sul2)", "result": 0.5, "unit": "µg/mL"}, {"measurement": "MIC", "setting": "[4]; FDA-CDC AR-BANK #0052 (OXA-58, OXA-100, sul2)", "result": 0.0625, "unit": "µg/mL"}, {"measurement": "MIC", "setting": "[4]; FDA-CDC AR-BANK #0063 (OXA-23, OXA-65, OXA-24, sul2)", "result": 16, "unit": "µg/mL"}, {"measurement": "MIC", "setting": "[4]; FDA-CDC AR-BANK #0070 (OXA-58, OXA-100, sul2)", "result": 0.0625, "unit": "µg/mL"}, {"measurement": "MIC", "setting": "[4]; FDA-CDC AR-BANK #0101 (strB, OXA-65, OXA-24, strA, sul2)", "result": 0.5, "unit": "µg/mL"}, {"measurement": "MIC", "setting": "[5]; FDA-CDC AR-BANK #0361 (TEM-1; SHV-12; KPC-2)", "result": 1, "unit": "µg/mL"}, {"measurement": "MIC", "setting": "[5]; FDA-CDC AR-BANK #0362 (TEM-1; SHV-11; KPC-2)", "result": 0.5, "unit": "µg/mL"}, {"measurement": "MIC", "setting": "[5]; FDA-CDC AR-BANK #0363 (TEM-1; SHV-12; KPC-2)", "result": 0.5, "unit": "µg/mL"}, {"measurement": "MIC", "setting": "[5]; FDA-CDC AR-BANK #0438 (aph(3′)-Ia, dfrA12, KPC-3, OmpK35, oqxA, oqxB, SHV-11)", "result": 1, "unit": "µg/mL"}, {"measurement": "MIC", "setting": "[5]; FDA-CDC AR-BANK #0453 (KPC-3, OmpK35, oqxA, oqxB, SHV-11, TEM-1B)", "result": 2, "unit": "µg/mL"}, {"measurement": "MIC", "setting": "[6]; CRAB strain No. 100085", "result": 0.5, "unit": "µg/mL"}, {"measurement": "MIC", "setting": "[6]; CRAB strain No. 100333", "result": 2, "unit": "µg/mL"}, {"measurement": "MIC", "setting": "[6]; CRAB strain No. 110440", "result": 3, "unit": "µg/mL"}, {"measurement": "MIC", "setting": "[6]; CRAB strain No. 110477", "result": 2, "unit": "µg/mL"}, {"measurement": "MIC", "setting": "[6]; CRAB strain No. 110517", "result": 0.5, "unit": "µg/mL"}, {"measurement": "MIC", "setting": "[7]; CRPA strain No. 100110", "result": 0.031, "unit": "µg/mL"}, {"measurement": "MIC", "setting": "[7]; CRPA strain No. 110163", "result": 0.5, "unit": "µg/mL"}, {"measurement": "MIC", "setting": "[7]; CRPA strain No. 110224", "result": 0.75, "unit": "µg/mL"}, {"measurement": "MIC", "setting": "[7]; CRPA strain No. 110358", "result": 1, "unit": "µg/mL"}, {"measurement": "MIC", "setting": "[7]; CRPA strain No. 110390", "result": 0.5, "unit": "µg/mL"}, {"measurement": "MIC", "setting": "[8]; CRE strain No. 100109", "result": 1, "unit": "µg/mL"}, {"measurement": "MIC", "setting": "[8]; CRE strain No. 100186", "result": 1.5, "unit": "µg/mL"}, {"measurement": "MIC", "setting": "[8]; CRE strain No. 110502", "result": 6, "unit": "µg/mL"}, {"measurement": "MIC", "setting": "[8]; CRE strain No. 110525", "result": 2, "unit": "µg/mL"}, {"measurement": "MIC", "setting": "[8]; CRE strain No. 311277", "result": 1.5, "unit": "µg/mL"}]}
